Reference: patent US8158809B2 (priority 2003, dated 2012)

System: HCT116
Test: Cell colony formation assay
Type: cell-based
Details: 10 nM; 72 hours with drug; colonies counted after 7 days
Method: This example provides directions for growing cells and testing compounds of the invention for their effect on the growth of the cells. All cells were purchased from DCTDC Tumor Repository, NCI, NIH.
The cells were incubated in a CO2 incubator at 37° C. for 5 hours for attachment to the bottom of Petri dishes. Drugs were made fresh in medium at ten times the final concentration, and then 0.3 ml of this stock solution was added to the 2.7 ml of medium in the dish. The cells were then incubated with drugs for 72 hours at 37° C. At the end of the incubation the drug-containing media were decanted, the dishes were rinsed with 4 ml of Hank's Balance Salt Solution (HBSS), 5 ml of fresh medium was added, and the dishes were returned to the incubator for colony formation. The cell colonies were counted using colony counter after incubation for 7 days for HCT116 cells and PC-3 cells and 8 days for VM46 cells, respectively. Cell survival (%) was calculated, as shown in Table I below for HCT 116 cells.

## COc1cc([C@@H]2c3cc4c(cc3[C@@H](O[C@@H]3O[C@@H]5CO[C@@H](C)O[C@H]5[C@H](O)[C@H]3O)[C@H]3COC(=O)[C@H]23)OCO4)cc(OC)c1O [Etoposide, reference compound]
  In Vitro Efficacy: Survival (%) of HCT116: 100%
